# Where two headings read alike, the source gives them in different places. Where a SMILES comes first, the peptide text is derived from it. [ ]: non-standard residue; d: D form. The star is where a group is joined. Sta = CC(C)C[C@H](N)[C@@H](O)CC(=O)O; Isovaleryl = CC(C)CC(=O)*
# Legend:
# [1] = system: TSBP proteinases; test: Gelatin-substrate gel analysis of TSBP proteinases with inhibitors (O. circumcincta); type: biochemical
# Experimental: (§1) TSBP were fractionated by non-reducing SDS-PAGE in 7.5% gel slabs containing 0.1% gelatin. The electrode buffer (Laemmli, 1977) was chilled on ice prior to use. After electrophoresis, SDS was eluted from the gel by extensive washing with 2.5% Triton X-100 for 30 minutes. Gel slabs were incubated overnight at 37° C. in 0.1M acetate buffer pH 5, 2 mM with respect to DTT or 0.1M Tris, pH 8.5. For some experiments TSBP were incubated with proteinase inhibitors prior to electrophoresis and inhibitors were also included in the incubation buffer at the final concentrations indicated above. Proteinases were visualised by Coomassie blue counter-staining.
# Proteinase activity associated with TSBP was monitored using gelatin-substrate gel analysis as described in Example 2 (paragraph (b)) to enable the characterisation of individual proteinases.
# [2] = system: TSBP proteinases; test: Gelatin-substrate gel analysis of TSBP proteinases with inhibitors (H. contortus); type: biochemical; conditions: for 70 kDa proteinase activity / 88 kDa proteinase activity: pH 8.5, PMSF 1.0 mM or EDTA 1.0 mM
# Experimental: as §1
# [3] = system: TSBP proteinases; type: biochemical, H. contortus; conditions: for proteolysis reduced in the presence of inhibitor (percent activity lost): pH 8.5
# Experimental: TSBP (2 μg protein in 10 μl) were mixed with 1OO μl sterile buffer (0.1M acetate, pH5) and 20 μl azocasein (1 mg/ml) in the same buffet. The reaction mixture was supplemented with penicillin (500 iu/ml) and streptomycin (5 mg/ml), vortexed briefly and then incubated overnight at 37° C. Undigested protein was precipitated by the addition of 1M perchloric acid (13O μl) and incubation on ice for 30 minutes. Following centrifugation at 11,000 g for 5 minutes the 0D405 of the resulting supernatant was determined. Blank reactions, containing sterile water instead of TSBP, were run in parallel. The optimal pH for enzyme activity was determined in a series of reactions using buffers over the pH range 3 to 10.
# The effects of various proteinase inhibitors on TSBP proteinases were monitored by incubating TSBP with buffer supplemented with inhibitor for 30 minutes prior to addition of azocasein and antibiotics. Inhibitors tested and the final reaction concentrations were phenylmethanesulphonylfluoride (PMSF, 1.0 mM), L-transepoxysuccinyl-L-leucylamido-(4-guanidino)-butane (E64, 100 μM), ethylenediaminetetraacetic-acid (EDTA, 1.0 mM) and pepstatin (10 μM).
# [4] = pH 5, azocasein, PMSF 1.0 mM, EDTA 1.0 mM, pepstatin 10 μM
smiles,measurement,setting,value
"c1cnc2c(c1)ccc1cccnc12 [1,10 Phe]",97 kDa protease,[1]; pH 8.5,inhibited
"CC(C)C[C@H](NC(=O)[C@H]1O[C@@H]1C(=O)O)C(=O)NCCCCN=C(N)N [E64, L-transepoxysuccinyl-L-leucylamido-(4-guanidino)-butane]","zones of proteolysis at 37-38, 52, 70 and 100 kDa","[2]; pH 5, E64 100 μM",abolished
same,TSBP proteinase activity in the presence of inhibitor,"[3]; pH 5, azocasein, E64 100 μM",eliminated
same,"zones of proteolysis at 40, 50 and 70 kDa and stack/separating gel interface",[1]; pH 5,completely inhibited
"O=C(O)CN(CCN(CC(=O)O)CC(=O)O)CC(=O)O [EDTA, ethylenediaminetetraacetic-acid]",70 kDa proteinase activity,[2],markedly reduced
same,88 kDa proteinase activity,[2],completely inhibited
same,percent activity lost in comparison to a control preparation in the absence of the inhibitor,[3]; pH 5,11%
same,proteolysis reduced in the presence of inhibitor (percent activity lost),[3],43%
"O=S(=O)(F)Cc1ccccc1 [PMSF, phenylmethanesulphonylfluoride]",70 kDa proteinase activity,[2],markedly reduced
same,88 kDa proteinase activity,[2],completely inhibited
same,percent activity lost in comparison to a control preparation in the absence of the inhibitor,[3]; [4],28%
same,proteolysis reduced in the presence of inhibitor (percent activity lost),"[3]; azocasein, PMSF 1.0 mM, EDTA 1.0 mM",52%
same,85 kDa doublet proteolysis,[1]; pH 8.5,inhibited
same,97 kDa protease,[1]; pH 8.5,inhibited
"CC(C)CC(=O)N[C@H](C(=O)N[C@H](C(=O)N[C@@H](CC(C)C)[C@@H](O)CC(=O)N[C@@H](C)C(=O)N[C@@H](CC(C)C)[C@@H](O)CC(=O)O)C(C)C)C(C)C [Pepstatin, pepstatin] (Isovaleryl-VV[Sta]A[Sta]-OH)",percent activity lost in comparison to a control preparation in the absence of the inhibitor,[3]; [4],6%

# From US20030129204A1, “Vaccines against helminthic parasites” (priority 1994, published 2003)
